Measured values as given in patent US20250327028A1, “ENGINEERED PLATELETS AS TARGETED PROTEIN DEGRADERS” (Wisconsin Alumni Research Foundation, priority 2024, published 2025).

Tests used:
[1] = tested on: HSP90α (Hsp90aa1) and HSP90β (Hsp90ab1); assay: Streptavidin-mediated immunoprecipitation and mass spectrum analysis of biotin-labeled protein in 4T1 lysate; format: cell-based, murine; settings: 4T1 cell lysate
Experimental: Streptavidin-mediated immunoprecipitation and mass spectrum analysis: 2×10^6 4T1 cells were seeded in T75 culture flasks and cultured for 24 h. Then, the medium in the corresponding flasks was replaced with 15 mL of blank medium with DMSO or HAC-B (10 μM). Following incubation for another 2 h, the cells were washed with cold PBS twice and digested with 2 mL trypsin. The cell pellets were collected through centrifugation at 1,200 rpm for 3 min and washed with cold PBS. The final pellets were directly lysed on ice with IP lysis buffer (50 mM Tris-HCl, pH 7.4; 150 mM NaCl; 2 mM EDTA; 1% NP-40) containing PMSF (1 mM) and the phosphatase inhibitor cocktail for 30 min. The lysates were collected and centrifuged at 10,000 g for 10 minutes at 4° C. The total proteins in the supernatants were quantified through the BCA assay, and 20 μL of lysate supernatants were saved as the input samples. To totally pull down the biotin-labeled contents, 150 μL of Pierce™ streptavidin magnetic beads was added to each supernatant, and the resulting mixtures were incubated at 4° C. with a gentle rotation overnight. Subsequently, the supernatant was discarded by placing the tubes on a magnetic rack, and the obtained magnetic beads were washed with IP lysis buffer three times. […] Finally, the bands were treated with ECL western blot substrate and detected by the iBright™ imaging system. […]

BRD4 = biological target: T1, BRD4 (Homo sapiens, UniProt O60885); assay: Immunoblot analysis of BRD4 degradation in HSP90α-KO MDA-MB-231 cells; format: cell-based; settings: 24 h
T1 construct: endogenous in cells; host or cells: WT MDA-MB-231 (ATCC)
Description: Immunoblot analysis: Immunoblot analysis was used to evaluate the expression of BRD4, HSP90, HSP90a, and PD-L1 in 4T1, WT MDA-MB-231, HSP90α-KO MDA-MB-231 or PEA-10 cells after various treatments and also served as the detection method for IP or co-IP experiments. The procedures for preparing IP or co-IP samples were indicated in the relevant experimental parts.
Sample preparation for various cancer cells after free HAC treatment: Various cells, including 4T1, WT MDA-MB-231, HSP90α-KO MDA-MB-231, or PEA-10 cells, were seeded in 6-well culture plates with a density of 5×10^4 cells in each well and cultured for 24 h. Then, if HAI pretreatment was performed, the cells were incubated in the HAI-containing blank medium at different concentrations for 2 h and washed with PBS twice before the following treatments. […]
General procedures for immunoblot analysis: After a 30-min lysis, the lysates were centrifuged at 10,000 g for 10 minutes at 4° C., and the corresponding supernatants were collected, followed by quantification of the total proteins in the supernatant through the BCA assay. […] Finally, the bands were treated with electrochemiluminescence (ECL) western blot substrate, detected by the iBright™ imaging system and quantified with ImageJ software. […]

| SMILES | biotin-labeled protein immunoprecipitated by streptavidin beads (gel, immunoblot) ([1]; 10 μM, 2 h, vs sample without treatment) | protein identification on IP samples through mass spectrum ([1]; streptavidin IP) | remaining BRD4 degradation potency (BRD4) | effect of HSP90α deficiency on BRD4 degradation efficacy (BRD4; lower and higher concentration ranges) |
| --- | --- | --- | --- | --- |
| N#CCN(C(=O)CCCC[C@@H]1SC[C@@H]2NC(=O)N[C@@H]21)S(=O)(=O)c1ccc(C(=O)NCCCn2c(Sc3cc4c(cc3I)OCO4)nc3c(N)ncnc32)cc1 [HAC-B, N-(3-(6-amino-8-((6-iodobenzo[d][1,3]dioxol-5-yl)thio)-9H-purin-9-yl)propyl)-4-(N-(cyanomethyl)-N-(5-((3aS,4S,6aR)-2-oxohexahydro-1H-thieno[3,4-d]imidazol-4-yl)pentanoyl)sulfamoyl)benzamide] | an additional HSP90 band appeared in the gel | could bind to both isoforms of HSP90, HSP90α (Hsp90aa1) and HSP90β (Hsp90ab1), with a favorable selectivity |  |  |
| Cc1sc2c(c1C)C(c1ccc(Cl)cc1)=N[C@@H](CC(=O)NCc1cn(CCCC(=O)N(CC#N)S(=O)(=O)c3ccc(C(=O)NCCCn4c(Sc5cc6c(cc5I)OCO6)nc5c(N)ncnc54)cc3)nn1)c1nnc(C)n1-2 [iHAC, (S)—N-(3-(6-amino-8-((6-iodobenzo[d][1,3]dioxol-5-yl)thio)-9H-purin-9-yl)propyl)-4-(N-(4-(4-((2-(4-(4-chlorophenyl)-2,3,9-trimethyl-6H-thieno[3,2-f][1,2,4]triazolo[4,3-a][1,4]diazepin-6-yl)acetamido)methyl)-1H-1,2,3-triazol-1-yl)butanoyl)-N-(cyanomethyl)sulfamoyl)benzamide] |  |  | partially maintains the degradation potency | substantially compromised the BRD4 degradation efficacy |
